Test results as given in patent US8334409B2, “Process for purifying rasagiline base” (Teva Pharmaceutical Industries, Ltd., priority 2008, dated 2012).

Key:
[1] = low levels of volatiles (water and residual solvents) by KF and TGA
[2] = alcohols, acetone, ethyl acetate, toluene, diethyl ether, dioxane, hexane and n-heptane

In the case of C#CCN[C@@H]1CCc2ccccc21 [rasagiline base, R(+)-N-propargyl-1-aminoindan], the hygroscopicity [1] is reported as “not hygroscopic” and the “solubility in polar and non-polar organic solvents” value [2] is reported as “freely soluble”.
